The values that follow come from patent US11823799B2, “Method for identifying personalized therapeutic strategies for patients affected with a cancer” (UNIVERSITE DE STRASBOURG, priority 2015, dated 2023).

For assay [1], the system named is PC model (HID-28). Description: Prostate tumor PDX model HID-28, subcutaneous tumor growth in mice. Type of assay: in vivo, nude mice. To be noted: Cediranib 6 mg/kg p.o; for effect on tumor growth / tumor development: Docetaxel 20 mg/kg i.p, Erlotinib 50 mg/kg p.o, vs vehicle. The text has this: Small tumor fragments are subcutaneously implanted in the flank of athymic nude mice. When tumor size reached 1000 to 2000 mm^3, tumors are surgically excised and small tumor fragments (approximately 40 mm^3) are implanted in the subcutaneous tissue of the interscapular region of 82 nude mice. 36 mice with established growing tumors and tumor volume ranging 60 to 200 mm^3 are included in the study and randomized according to their individual tumor volume into 4 groups of 9 mice. Tumor signature is verified during the amplification and also after engraftment.
The first group is treated with Erlotinib 50 mg/kg (n=9) p.o 1 time per week during 3 weeks, the second is treated with Cediranib 6 mg/kg (n=9) p.o during 3 cycles of 5 days interrupted by 2 days of wash-out, the third group with a mix of the vehicle of Erlotinib and Cediranib (sodium carboxymethylcellulose 0.5%, captisol 15%, DMSO 1% and methylcellulose 0.5%), and the last group is treated with Docetaxel 20 mg/kg (n=9) i.p during 2 cycles of 1 injection every 3 weeks.
Tumor volume is evaluated biweekly by measuring tumor diameters, with a caliper. The formula TV (mm^3)=[length (mm)×width (mm)^2]/2 will be used, where the length and the width are the longest and the shortest diameters of the tumor, respectively.
On the day of termination (28 days after the first treatment), mice are sacrificed by cervical dislocation, tumor are collected from all mice (36 tumor samples totally) and serum from 5 mice per group is collected (20 serum samples totally).

The test system of assay [2] is glioblastoma patient HB21 tumor. Description: Glioblastoma patient HB21 biopsy cells grafted orthotopically in mouse brain, tumor volume. Type of assay: in vivo, Immunocompromised mice. The following applies: for tumor growth inhibition compared to standard of care (Temozolomide): SB-3CT 25 mg/kg p.o, Cediranib 6 mg/kg p.o, 21 days after first treatment. As for the experimental part: Immunocompromised mice were anesthetized with isoflurane 3% (BAXTER), under 0.5 L 02, and received a subcutaneous injection of ketofen 1% 1.5 mL/Kg (MERIAL). The scalp was incised and 100 000 cells of the dissociated glioblastoma biopsy were engrafted with a 2 μL Hamilton syringe (HARVARD […]; HAM-88400) mounted on a stereotaxic set up (HARVARD […]) at the following coordinates from the bregma x: −2 mm; y: +1 mm; z: −3.5 mm at a speed of 0.66 μl/min, 5 minutes after the syringe introduction. After injection, the syringe was kept in place for 5 minutes, and then raised for 1 mm per minute. The scalp was sutured with 7.5 mm Michel stainless steel wound clips (A75, PERFECT). Animals were allowed to recover under a heat lamp several minutes before they were returned to their cage.
After 52 days of tumor development, mice were randomized in 4 groups of treatment. First group was treated with Temozolomide 40 mg/kg (n=9) i.v during 5 consecutive days, second one was treated with SB-3CT 25 mg/kg (n=9) p.o during 10 days interrupted by 2 days of wash-out after 5 days, a third group was treated with Cediranib 6 mg/kg (n=10) p.o during 10 days interrupted by 2 days of wash-out after 5 days, a last one group was treated with Erlotinib 50 mg/kg (n=9) p.o 1 time per week during 3 weeks. The administration volume was 100 μL. On the day of termination (21 days after the first treatment), all mice are sacrificed by cervical dislocation, brains are removed (38 total samples), and included in cryo-embedding media OCT© and stored at −80° C.
Brains were cut in 20 μm sections with a cryostat (LEICA CM 3050S), mounted on blade (Superfrost Super Plus), and stored at −20° C. In order to visualize the tumor, brain sections were thawed in distilled water and Stained with 2% diluted Giemsa's staining (SUBRA; RAL diagnostic 320310-1000) in distilled water at 37° C. for 2 hours. […] Tumor volume was calculated by the addition of every partial volume: [Vtotal=Σpartial volumes=Σd1× (S1+S2)/2+d2×(S2+S3)/2+ . . . +dn× (Sn+Sn+1)]. […]

Assay [3] has as its system CC model (CR-IC-028M). The assay is described as follows: Colorectal tumor PDX model CR-IC-028M, subcutaneous tumor growth in mice. To be noted: Cediranib 6 mg/kg p.o. Type of assay: in vivo, SWISS Nude mice. The text has this:
Small tumor fragments were subcutaneously implanted in the right flank of 9 CB17 SCID mice. When tumor size reached 500-700 mm^3, tumors were surgically excised and small tumor fragments were subcutaneously implanted in the right flank of 52 recipient SWISS Nude mice.
The treatment started when tumors reached a mean volume of 200-300 mm^3. 40 animals out were randomized according to their individual tumor volume into 4 groups each of 10 animals using Vivo Manager® software (Biosystemes, Couternon, France). A statistical test (analysis of variance) was performed to test for homogeneity between groups.
The administration volume for the two models was 10 mL/kg (200 μL/mouse of 20 g) adjusted to the most recent individual body weight of mice.
The tumor volume was calculated by [(a×b^2) 2], where a is the largest tumor diameter and b the perpendicular tumor diameter measured with a caliper every 3 days.
On the day of termination (31 days after the first treatment), mice were sacrificed (40 total samples) by gas anesthesia over-dosage (Isoflurane) followed by cervical dislocation or exsanguination and tumor were collected from all mice.

The subject of assay [4] is PC model (HID-28). To be noted: cited from earlier work.
Assay [5] deals with recurrent glioblastoma. The following applies: cited from earlier work.

As to `COc1cc2c(Oc3ccc4[nH]c(C)cc4c3F)ncnc2cc1OCCCN1CCCC1` [Cediranib], the “effect on tumor growth / tumor development” value is recorded as “very significant anti-tumor activity” in assay [1] and “very significant anti-tumor activity” in assay [3] (Cetuximab 12.5 mg/kg i.p, Trastuzumab 1 mg/kg i.p, vs vehicle). The tumor volume change in assay [1] (end point of the protocol, p=0.002, T-test, evolution of tumor growth P<0.0001) is listed as −78%; in assay [3] (end point of the protocol, p=0.01, T-test, evolution of tumor growth P<0.0001), −50%. Further, the “tumor growth inhibition compared to standard of care (Temozolomide)” value in assay [2] is given as “identical to the one obtained with the standard of care”.

In the case of `CC(=O)O[C@@]12CO[C@@H]1C[C@H](O)[C@@]1(C)C(=O)[C@H](O)C3=C(C)[C@@H](OC(=O)[C@H](O)[C@@H](NC(=O)OC(C)(C)C)c4ccccc4)C[C@@](O)([C@@H](OC(=O)c4ccccc4)[C@H]21)C3(C)C` [Docetaxel], in assay [1], the “effect on tumor growth / tumor development” value is “tumor growth was inhibited”. The “response of the model in previous results” value in assay [4] is “responsive”.

As for `C#Cc1cccc(Nc2ncnc3cc(OCCOC)c(OCCOC)cc23)c1` [Erlotinib], the “effect on tumor growth / tumor development” value in assay [1] is given as “not efficient in blocking tumor development”. Moreover, the “efficacy when compared to all other drugs” value in assay [2] (Erlotinib 50 mg/kg p.o 1 time per week, 3 weeks, not significantly different) is on record as −60%.

As for `O=S(=O)(CC1CS1)c1ccc(Oc2ccccc2)cc1` (stereo not drawn) [SB-3CT], in assay [2], the “tumor growth inhibition compared to standard of care (Temozolomide)” value is given as “identical to the one obtained with the standard of care”.

Regarding Bevacizumab, the “PFS and OS advantage in phase III trials” value in assay [5] (AVAglio and RTOG phase III trials (Soffietti 2014)) is listed as “significant advantage for Bevacizumab treated patients in term of PFS but not of OS”. Further, the “patients who seem to benefit from treatment” value in assay [5] (overall) is on record as “less than 50%”.
